Like-named read-outs stand apart in the source and are kept apart here.
Assays:
BALB/cJ mice [1] = conditions: acute 10 mg/kg fluoxetine; cited from earlier work
BALB/cJ mice [2] = assay: Novelty induced hypophagia test; type: in vivo, mouse
Description: (§1) For chronic fluoxetine studies in BALB/cJ mice, 60 male BALB/cJ mice were tested in the OF for 30 min on days 19 or 20 of chronic fluoxetine treatment. Mice were then pretested and tested in the modified FST on days 21 and 22, respectively. Animals were then allowed to adapt to being singly housed, and were trained for NIH on days 25-27. Home cage and novel cage testing occurred on days 28 and 29, respectively. Mice were then assessed for PPI on days 34 or 35.
(§2) Studies of subchronic fluoxetine were conducted using separate groups of 60 male BALB/cJ mice to prevent fluoxetine treatment from exceeding one week. One group was tested in the OF after one day of subchronic fluoxetine treatment. Mice were then pretested after 6 and tested after 7 days of subchronic fluoxetine treatment in the modified FST. A second group of BALB/cJ mice began fluoxetine treatment after being singly housed. They were then tested in the NIH test after 4 (home) and 5 (novel) days of subchronic fluoxetine treatment. A third group was tested for PPI after one or two days of subchronic fluoxetine treatment.
Novelty induced hypophagia test: Mice were singly housed several days before training began. For three consecutive days of training, mice were presented with diluted (1:3; milk:water) sweetened condensed milk (Carnation) in pipettes in the home cage for 30 min. Testing occurred on days 4 and 5 when mice were presented with the milk, and latency to drink and the volume consumed were recorded every five minutes for 30 min. On day 4, testing occurred in the home cage under dim lighting (approx. 50 lux). Mice were briefly removed from the cage to position pipettes, and testing began when mice were returned to their cages. On day 5, mice were placed into new cages of the same dimensions without shavings under bright lighting (approx. 1200 lux). White paper was placed under cages to enhance aversiveness on day 5.
Novelty induced hypophagia test: For latency scores, a maximum cut-off of 600 sec was used. Two-factor ANOVAs with home/novel cage condition as a within-subjects factor and fluoxetine as a between-subjects factor were applied to latency values. Main effects of fluoxetine or significant interactions of fluoxetine and home/novel cage condition were resolved using post-hoc ANOVAs with adjusted p-values and/or Newman-Keuls post-hoc tests. For consumption data, a three-factor ANOVA with block (5 min intervals) and home/novel cage condition as within-subjects factors and fluoxetine as a between-subjects factor was used to assess whether the novel cage was sufficiently anxiogenic to reduce consumption. Two-factor ANOVAs with block as a within-subjects factor and fluoxetine as a between-subjects factor were applied separately to consumption values for the home and the novel cage. Main effects of fluoxetine or significant interactions were resolved using post-hoc ANOVAs with adjusted p-values and/or Newman-Keuls post-hoc tests.

[3] = administration of fluoxetine in the drinking water; cited from earlier work
animals = animals without drug withdrawal or chronic stress; low dose fluoxetine; cited from earlier work
[4] = test system: BALB/cJ, DBA/2J, C57BL/6J, and 129SvEv mice; assay: Modified forced swim test, strain comparison; type: in vivo, mouse
Description: For the strain comparison study, 36 male mice of four strains (BALB/cJ, DBA/2J, C57BL/6J, 129SvEv) were subjects for a total of 144 mice. Mice were tested in the OF beginning on day 30 or 33 of chronic fluoxetine treatment. Mice were tested for 15 min on three consecutive days to maximize activity levels. Mice were then tested in the modified FST on day 36 or 37.
(§3) Modified forced swim test: Mice were placed into 19 cm diameter plastic buckets which were 23 cm deep filled with 23°-25° C. water, and videotaped for six minutes. Only the last four minutes were scored for four measures: swimming, immobility, climbing, or other. The predominant behavior was recorded every 5 sec. For chronic and subchronic fluoxetine studies in BALB/cJ mice, mice were pre-exposed to the FST for 6 min 24 hours before test day to increase sensitivity for detecting antidepressant behavioral effects (Borsini et al., 1989).
(§4) Modified forced swim test: Two-factor ANOVAs with fluoxetine as a between-subjects factor and block (1 min intervals) as a within-subject factor were applied to three different measures: swimming, immobility, and climbing. Significant main effects of fluoxetine and interactions were resolved using post-hoc ANOVAs with adjusted p-values, and/or Newman-Keuls post-hoc tests.

BALB/cJ mice [5] = assay: Modified forced swim test, chronic vs. subchronic fluoxetine; type: in vivo, mouse
Description: as §1, §2, §3, §4

BALB/cJ mice [6] = assay: Open field test, chronic vs. subchronic fluoxetine; type: in vivo, mouse
Description: as §1, §2
Open field test: Motor activity was quantified in four Plexiglas OF boxes 43 x 43 cm (MED Associates, Georgia, Vt.). Two sets of 16 pulse-modulated infrared photobeams were placed on opposite walls 2.5-cm apart to record x-y ambulatory movements. Activity chambers were computer interfaced for data sampling at 100-ms resolution. The computer defined grid lines that divided each OF into center and surround regions, with each of four lines being 11 cm from each wall. Dependent measures were the number of entries into the center, the distance traveled in the center, total time spent in the center, and distance traveled in the center divided by total distance traveled. Overall motor activity was quantified as the total distance traveled (cm).
Open field test: For Experiment 1, two-factor ANOVAs with fluoxetine as a between-subject factor and day as a within-subject factor were applied to five measures for each strain: time spent in the center, distance traveled in the center, center distance/total distance traveled, entries into the center, and total distance traveled. Main effects of fluoxetine or significant interactions of fluoxetine and day were resolved using post-hoc ANOVAs with adjusted p-values and/or Newman-Keuls post-hoc tests. Subchronic and chronic experiments in Balb/cJ mice were analyzed using one-way ANOVAs with fluoxetine as a between-subjects factor and Newman-Keuls post-hoc tests for the same variables. Because data deviated substantially from a normal distribution due to low activity levels of Balb/cJ mice, analyses were applied to log transformed data.
Remaining significant effects of fluoxetine indicate independence between measures of locomotor activity and center measures.

[7] = subchronic (4-5 days) fluoxetine
[8] = BALB/cJ mice, chronic 10 mg/kg/day, relative to 5 mg/kg/day and controls
[9] = chronic 18 mg/kg/day vs controls

SMILES: CNCCC(Oc1ccc(C(F)(F)F)cc1)c1ccccc1 (centres unmarked) [fluoxetine]
- immobility (BALB/cJ mice [1]): reduces immobility acutely
- milk consumption in the home cage, first block (0-5 min) (BALB/cJ mice [2]; chronic 25 mg/kg/day): increased milk consumption compared to control
- milk consumption in the novel cage, first block (0-5 min) (BALB/cJ mice [2]; chronic 18 and 25 mg/kg/day): increased milk consumption compared to the 0 and 10 mg/kg/day doses
- latency difference scores (novel minus home) (BALB/cJ mice [2]; chronic 18 and 25 mg/kg/day vs control): control animals exhibited significantly larger difference scores
- latency to drink milk in the home cage (BALB/cJ mice [2]; chronic fluoxetine): reduced the latency to drink milk in the novel, but not the home cage
- latency to drink in the novel cage (BALB/cJ mice [2]; chronic fluoxetine, all three doses (10, 18, 25 mg/kg/day)): reduced the latency to drink relative to control in a dose-related fashion
- consumption in the home cage, post-hoc tests (BALB/cJ mice [2]; subchronic (4-5 days) 25 mg/kg/day): only a trend for the 25 mg/kg/day dose to increase consumption relative to control
- latency to drink (BALB/cJ mice [2]; [7]): no effect on any measure of latency
- milk consumption (BALB/cJ mice [2]; [7]): no effect
- time by which steady state blood levels have been achieved [3]: ≤ 5 days
- intracranial self-stimulation reward thresholds (animals): no effect
- immobility [4, 8]: decreased immobility
- swimming [4, 8]: increased swimming
- sensitivity to chronic treatment in the modified FST across strains ([4]; BALB/cJ, DBA/2J, C57BL/6J, 129SvEv, chronic 5 or 10 mg/kg/day): BALB/cJ was the only strain showing sensitivity
- climbing ([4]; chronic fluoxetine 5 or 10 mg/kg/day): No effects
- effect in the modified FST (BALB/cJ mice [5]; acute administration of 10 mg/kg/day in the drinking water, expected): no effect
- climbing (BALB/cJ mice [5]; chronic 25 mg/kg/day): increased climbing relative to all other doses
- swimming (BALB/cJ mice [5]; chronic 10 and 18 mg/kg/day, compared to 0 and 25 mg/kg/day): increases in swimming
- immobility (BALB/cJ mice [5]; chronic fluoxetine): No significant effects
- climbing (BALB/cJ mice [5]; subchronic (7 days) 18 mg/kg/day relative to the 0 dose): increase in climbing
- immobility (BALB/cJ mice [5]; subchronic (7 days) fluoxetine): no effect
- swimming (BALB/cJ mice [5]; subchronic (7 days) fluoxetine): no effect
- log of center entries (BALB/cJ mice [6]; chronic 10 mg/kg/day): lower values than groups receiving 18 mg/kg/day and 25 mg/kg/day
- center entries, without logarithmic transformation (BALB/cJ mice [6]; [9]): made more center entries
- center/total distance, without logarithmic transformation (BALB/cJ mice [6]; [9]): trend for higher center/total distance values
- log of center distance (BALB/cJ mice [6]; [9]): significantly higher values than controls
- log of center distance/log total distance traveled (BALB/cJ mice [6]; [9]): significantly higher values than controls
- log of center entries (BALB/cJ mice [6]; [9]): significantly higher values than controls
- log of time in the center (BALB/cJ mice [6]; chronic fluoxetine): no significant effect of drug
- total locomotor activity (log transformed) (BALB/cJ mice [6]; chronic fluoxetine 10, 18, 25 mg/kg/day, 30 min test): did not alter total locomotor activity
- total locomotor activity, without logarithmic transformation (BALB/cJ mice [6]; chronic fluoxetine, all doses): remain unaffected by all doses of drug
- any measures in the OF (BALB/cJ mice [6]; subchronic (one day) fluoxetine, untransformed or log transformed): no differences in any measures in the OF

— patent US20050186137A1, “Novelty-induced hypophagia-based assays for identifying agents to treat anxiety and depression” (priority 2003, published 2005)
